According to US20230144436A1, “MUSCLE TARGETING COMPLEXES AND USES THEREOF FOR TREATING MYOTONIC DYSTROPHY” (Dyne Therapeutics, Inc., priority 2020, published 2023):

Legend:
DMPK [1] = experiment: DMPK knockdown by transfected antisense oligonucleotides in DM1 C15 myotubes at 0.5 nM and 50 nM; assay type: cell-based; details: 72 hours; for Normalized DMPK Remaining: relative to vehicle control = 1.00
In short: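 Seven-day-differentiated DM1 C15 myotubes transfected (Lipofectamine MessengerMax) with each oligonucleotide at 0.5 nM or 50 nM final, biological triplicates. After 72 h, DMPK mRNA quantified by qPCR, expressed relative to vehicle-only transfection set to 1.00.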

DMPK [2] = experiment: Dose-responsive DMPK reduction in DM1 C15 myotubes (EC-50); assay type: cell-based; details: DM1 C15 differentiated myotubes, 72 hours; for EC50: transfection with Lipofectamine MessengerMax, 0.046-100 nM; for Percent DMPK reduction at 100 nM: transfection
Description: Eighteen oligonucleotides from Example 7 were selected to be evaluated for their ability to reduce DMPK expression in a dose-responsive manner. DM1 C15 myoblasts were prepared as in Example 7 to yield differentiated myotubes in 96-well microplates. After seven days of differentiation, cells were transfected with individual oligonucleotides using Lipofectamine MessengerMax. Each oligonucleotide was tested in triplicate at concentrations of 0.046 nM, 0.137 nM, 0.412 nM, 1.235 nM, 3.704 nM, 11.11 nM, 33.33 nM, and 100 nM by 3-fold serial dilutions using 0.3 μL of Lipofectamine MessengerMax per well.
Following addition of oligonucleotide, cells were incubated for 72 hours prior to harvesting for total RNA. cDNA was synthesized from the total RNA extracts and qPCR was performed to determine expression levels of DMPK using a commercially available Taqman probeset in technical quadruplicate. All qPCR data were analyzed using a traditional ΔΔCT method and were normalized to a plate-based negative control that comprised of cells treated with vehicle control (0.3 μL/well Lipofectamine MessengerMax without any oligonucleotide). Data for each oligonucleotide to was fit to sigmoidal curve in order to determine an effective concentration of each oligonucleotide that provided a half-maximal response (EC-50).

[3] = 0.5 nM oligonucleotide, qPCR, relative to vehicle control
[4] = 50 nM oligonucleotide, qPCR, relative to vehicle control

Substance	Percent DMPK Reduction (DMPK [1]; [3])	Normalized DMPK Remaining (DMPK [1]; 0.5 nM oligonucleotide, qPCR)	Percent DMPK Reduction (DMPK [1]; [4])	Normalized DMPK Remaining (DMPK [1]; 50 nM oligonucleotide, qPCR)	EC50 (DMPK [2])	Percent DMPK reduction at 100 nM (DMPK [2])	Percent DMPK Reduction (DMPK [1]; 0.5 nM oligonucleotide)	Normalized DMPK Remaining (DMPK [1]; 0.5 nM oligonucleotide)	Percent DMPK Reduction (DMPK [1]; 50 nM oligonucleotide)	Normalized DMPK Remaining (DMPK [1]; 50 nM oligonucleotide)
301 (UGUUGUCGGGUUUGAUGUCC; chemistry not given here) [compound 301]	21.00%	0.79	42.19%	0.58	0.21 nM	93.95%				
320 (CCCAGCGCCCACCAGUCACA; chemistry not given here) [compound 320]	37.93%	0.62	67.82%	0.32	5.45 nM	63.69%				
278 (CCAUCUCGGCCGGAAUCCGC; chemistry not given here) [compound 278]	20.50%	0.79	59.76%	0.40	0.44 nM	95.42%				
313 (GGACGAUCUUGCCAUAGGUC; chemistry not given here) [compound 313]	29.82%	0.70	48.97%	0.51	3.59 nM	92.18%				
286 (GCUUCAUCUUCACUACCGCU; chemistry not given here) [compound 286]	31.44%	0.69	51.78%	0.48	0.03 nM	64.06%				
273 (CUGUGCACGUAGCCAAGCCG; chemistry not given here) [compound 273]	25.67%	0.74	70.10%	0.30						
266 (AAUACUCCAUGACCAGGUAC; chemistry not given here) [compound 266]	28.86%	0.71	52.07%	0.48						
258 (AACUUGCUCAGCAGUGUCAG; chemistry not given here) [compound 258]	19.81%	0.80	52.64%	0.47						
369 (CAUGACAAUCUCCGCCAGGU; chemistry not given here) [compound 369]	29.45%	0.71	70.52%	0.29						
446 (AGCGGCAGAGAGAGGUGCUC; chemistry not given here) [compound 446]							19.75%	0.80	90.71%	0.09
311 (CUCAGCCUCUGCCGCAGGGA; chemistry not given here) [compound 311]	17.86%	0.82	79.58%	0.20						
366 (UUUGGGCAGAUGGAGGGCCU; chemistry not given here) [compound 366]	35.14%	0.65	70.00%	0.30						
290 (GGCCAUGACAAUCUCCGCCA; chemistry not given here) [compound 290]	42.38%	0.58	75.00%	0.25						
364 (AGCGCCCACCAGUCACACUC; chemistry not given here) [compound 364]	30.36%	0.70	63.67%	0.36						
353 (GGCGAAUACACCCAGCGCCC; chemistry not given here) [compound 353]	19.77%	0.80	68.72%	0.31						
463 (AGGUAGUUCUCAUCCUGGAA; chemistry not given here) [compound 463]							7.36%	0.93	62.62%	0.37
335 (UCCCCAAACUUGCUCAGCAG; chemistry not given here) [compound 335]	5.73%	0.94	44.67%	0.55						
249 (AAACUUGCUCAGCAGUGUCA; chemistry not given here) [compound 249]	30.85%	0.69	50.69%	0.49						
252 (UCUCGGCCGGAAUCCGCUCC; chemistry not given here) [compound 252]	27.88%	0.72	67.46%	0.33						
379 (CAGGUAGUUCUCAUCCUGGA; chemistry not given here) [compound 379]							25.92%	0.74	76.71%	0.23
337 (GUUUGCCCAUCCACGUCAGG; chemistry not given here) [compound 337]	34.36%	0.66	54.49%	0.46						
271 (CCCACGUAAUACUCCAUGAC; chemistry not given here) [compound 271]	28.21%	0.72	45.94%	0.54						
253 (UGCUCAGCAGUGUCAGCAGG; chemistry not given here) [compound 253]	27.08%	0.73	65.78%	0.34						
298 (UGCUUCAUCUUCACUACCGC; chemistry not given here) [compound 298]	28.82%	0.71	60.24%	0.40						
408 (UCGGGUUUGAUGUCCCUGUG; chemistry not given here) [compound 408]							22.49%	0.78	57.16%	0.43
332 (AAUCUCCGCCAGGUAGAAGC; chemistry not given here) [compound 332]	35.85%	0.64	65.27%	0.35						
334 (CCAUGACAAUCUCCGCCAGG; chemistry not given here) [compound 334]	34.53%	0.65	76.46%	0.24						
